Experimental data from ChEMBL document CHEMBL1926625, “Identification of benzoxazin-3-one derivatives as novel, potent, and selective nonsteroidal mineralocorticoid receptor antagonists” (J Med Chem, 2011).

Key:
[1] = target: T1, Glucocorticoid receptor (Homo sapiens, UniProt P04150); experiment: Displacement of [3H]dexomethasone from GR
T1 sequence (P04150 whole entry): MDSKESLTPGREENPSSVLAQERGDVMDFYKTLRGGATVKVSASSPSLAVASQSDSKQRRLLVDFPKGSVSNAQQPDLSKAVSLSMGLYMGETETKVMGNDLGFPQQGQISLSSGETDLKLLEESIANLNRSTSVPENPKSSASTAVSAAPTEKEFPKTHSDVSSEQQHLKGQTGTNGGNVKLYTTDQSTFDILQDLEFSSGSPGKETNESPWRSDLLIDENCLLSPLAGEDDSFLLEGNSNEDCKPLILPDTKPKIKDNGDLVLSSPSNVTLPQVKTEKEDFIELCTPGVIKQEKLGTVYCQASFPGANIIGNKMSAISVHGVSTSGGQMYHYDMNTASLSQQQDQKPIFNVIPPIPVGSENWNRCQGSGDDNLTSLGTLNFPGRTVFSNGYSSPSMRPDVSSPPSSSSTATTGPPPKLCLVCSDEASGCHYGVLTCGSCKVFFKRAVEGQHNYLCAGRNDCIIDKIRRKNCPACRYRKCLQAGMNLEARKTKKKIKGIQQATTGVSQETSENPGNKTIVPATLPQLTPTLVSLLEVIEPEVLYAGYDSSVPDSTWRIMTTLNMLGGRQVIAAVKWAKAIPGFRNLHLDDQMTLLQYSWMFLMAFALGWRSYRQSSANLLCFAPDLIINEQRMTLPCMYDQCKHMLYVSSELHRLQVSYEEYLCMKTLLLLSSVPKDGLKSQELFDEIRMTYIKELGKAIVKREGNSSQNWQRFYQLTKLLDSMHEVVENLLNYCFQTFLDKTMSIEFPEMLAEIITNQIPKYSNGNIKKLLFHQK

[2] = Clearance in Sprague-Dawley rat at 3 mg/kg, iv and 10 mg/kg, po; type: ADME, organism-based; details: in vivo

## Cc1cc(F)ccc1-n1nc(C(F)(F)F)cc1-c1ccc2c(c1)NC(=O)CO2
[1]
  IC50: 1800 nM
[2]
  clearance: 22.1 mL/min/kg
